Measured values taken from BindingDB's records for doi:10.1021/jm020018f (Sphinx Laboratories, 2002).

Biological target: cAMP-dependent protein kinase catalytic subunit alpha (Bos taurus, UniProt P00517)
Test: PKA assay
Procedure: The activity of PKA, activated by cAMP, is measured by its ability to transfer phosphate from [gamma-32P]ATP to histone.

Row | IC50 (pH 7.5, 30 °C) | IC50 | Structure (SMILES)
1 | 1 µM |  | O=C(N[C@@H]1CNCCC[C@H]1OC(=O)c1cc(O)c(C(=O)c2ccccc2C(=O)O)c(O)c1)c1ccc(O)cc1
2 |  | > 150 µM | O=C(N[C@@H]1CNCCC[C@H]1OC(=O)c1cc(O)c(C(=O)c2ccc3ccccc3c2O)c(O)c1)c1ccc(O)cc1 [4-trans-[4-(1-Hydroxy-2-naphthoyl)-3,5-dihydroxybenzoyloxy]-3-(4-hydroxybenzamido)azepane]
3 | 0.44 µM |  | O=C(N[C@@H]1CNCCC[C@H]1OC(=O)c1cc(O)c(C(=O)c2ccccc2O)c(O)c1)c1ccc(O)cc1 [4-trans-[4-(2-Hydroxybenzoyl)-3,5-dihydroxybenzoyloxy]-3-(4-hydroxybenzamido)azepane]
4 |  | 0.25 µM | COc1cccc(O)c1C(=O)c1c(O)cc(C(=O)O[C@@H]2CCCNC[C@H]2NC(=O)c2ccc(O)cc2)cc1O [(3R,4R)-3-[(4-hydroxybenzene)amido]azepan-4-yl 3,5-dihydroxy-4-[(2-hydroxy-6-methoxyphenyl)carbonyl]benzoate]
5 | 0.44 µM |  | O=C(N[C@@H]1CNCCC[C@H]1OC(=O)c1cc(O)c(C(=O)c2c(O)cccc2O)c(O)c1)c1ccc(O)cc1 [(3R,4R)-3-[(4-hydroxybenzene)amido]azepan-4-yl 4-[(2,6-dihydroxyphenyl)carbonyl]-3,5-dihydroxybenzoate]
6 |  | 0.36 µM | COc1cccc(OC)c1C(=O)c1c(O)cc(C(=O)O[C@@H]2CCCNC[C@H]2NC(=O)c2ccc(O)cc2)cc1O [(3R,4R)-3-[(4-hydroxybenzene)amido]azepan-4-yl 4-[(2,6-dimethoxyphenyl)carbonyl]-3,5-dihydroxybenzoate]
7 |  | 0.3 µM | O=C(N[C@@H]1CNCCC[C@H]1OC(=O)c1cc(O)c(C2OC(=O)c3cccc(O)c32)c(O)c1)c1ccc(O)cc1 (stereo partly drawn) [trans-4-[3,5-Dihydroxy-4-(4-hydroxy-3-phthlido)benzoyloxy]-3-(4-hydroxybenzamido)azepine]

Row | Structure (SMILES) | IC50 (pH 7.5, 30 °C) | IC50
8 | O=C(N[C@@H]1CNCCC[C@H]1OC(=O)c1cc(O)c(Cc2c(O)cccc2C(=O)O)c(O)c1)c1ccc(O)cc1 [2-{[2,6-dihydroxy-4-({[(3R,4R)-3-[(4-hydroxybenzene)amido]azepan-4-yl]oxy}carbonyl)phenyl]methyl}-3-hydroxybenzoic acid] |  | 0.47 µM
9 | O=C(N[C@@H]1CNCCC[C@H]1OC(=O)c1cc(O)c(C(=O)[C@@H]2CCCC[C@@H]2C(=O)O)c(O)c1)c1ccc(O)cc1 [4-trans-[4-(cis-2-Carboxycyclohexanoyl)-3,5-dihydroxybenzoyloxy]-3-(4-hydroxybenzamido)azepane] | 7.9 µM | 
10 | O=C(N[C@@H]1CNCCC[C@H]1OC(=O)c1cc(O)c2c(=O)c3c(C(=O)O)cccc3oc2c1)c1ccc(O)cc1 [8-hydroxy-6-({[(3R,4R)-3-[(4-hydroxybenzene)amido]azepan-4-yl]oxy}carbonyl)-9-oxo-9H-xanthene-1-carboxylic acid] |  | > 15 µM
11 | O=C(N[C@@H]1CNCCC[C@H]1OC(=O)c1cc(O)c(C(=O)[C@@H]2CCCC[C@H]2C(=O)O)c(O)c1)c1ccc(O)cc1 [(1R,2R)-2-{[2,6-dihydroxy-4-({[(3R,4R)-3-[(4-hydroxybenzene)amido]azepan-4-yl]oxy}carbonyl)phenyl]carbonyl}cyclohexane-1-carboxylic acid] | 6.7 µM | 
12 | COc1cc(C(=O)O[C@@H]2CCCNC[C@H]2NC(=O)c2ccc(O)cc2)cc(OC)c1C(=O)c1c(O)cccc1O [(3R,4R)-3-[(4-hydroxybenzene)amido]azepan-4-yl 4-[(2,6-dihydroxyphenyl)carbonyl]-3,5-dimethoxybenzoate] |  | 4.3 µM
